Laboratory results taken from publication PMC9120017, “Inhibition mechanism of the chloride channel TMEM16A by the pore blocker 1PBC” (Nature Communications, 2022).

Target: T1, mouse TMEM16F (Mus musculus, UniProt Q6P9J9)
T1 construct: expressed in transfected cells; host or cells: HEK293T
T1 sequence (Q6P9J9 1-911): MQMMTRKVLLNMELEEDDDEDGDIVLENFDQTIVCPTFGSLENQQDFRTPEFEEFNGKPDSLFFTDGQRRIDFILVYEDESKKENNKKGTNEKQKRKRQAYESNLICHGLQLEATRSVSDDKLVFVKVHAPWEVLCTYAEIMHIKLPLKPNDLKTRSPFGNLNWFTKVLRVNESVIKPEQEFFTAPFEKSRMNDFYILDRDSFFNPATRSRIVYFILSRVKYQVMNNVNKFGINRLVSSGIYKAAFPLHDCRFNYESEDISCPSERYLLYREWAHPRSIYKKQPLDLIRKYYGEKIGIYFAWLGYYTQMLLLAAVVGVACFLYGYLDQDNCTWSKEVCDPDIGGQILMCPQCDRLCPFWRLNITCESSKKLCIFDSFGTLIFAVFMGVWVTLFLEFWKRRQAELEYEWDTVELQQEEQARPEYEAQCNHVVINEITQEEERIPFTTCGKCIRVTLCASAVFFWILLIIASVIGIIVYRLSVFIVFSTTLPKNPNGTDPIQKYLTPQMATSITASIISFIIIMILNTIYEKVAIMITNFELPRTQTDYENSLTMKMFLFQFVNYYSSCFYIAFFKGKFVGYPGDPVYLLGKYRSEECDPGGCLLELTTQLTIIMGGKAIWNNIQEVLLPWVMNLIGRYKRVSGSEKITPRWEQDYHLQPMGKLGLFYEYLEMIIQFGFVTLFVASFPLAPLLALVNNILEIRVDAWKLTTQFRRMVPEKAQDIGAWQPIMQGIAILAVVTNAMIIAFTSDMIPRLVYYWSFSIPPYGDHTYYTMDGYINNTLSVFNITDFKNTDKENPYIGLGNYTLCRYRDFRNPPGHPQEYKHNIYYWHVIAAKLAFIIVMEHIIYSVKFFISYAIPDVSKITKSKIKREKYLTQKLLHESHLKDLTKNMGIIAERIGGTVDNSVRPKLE
Experiment: Inside-out patch recording of 1PBC block, TMEM16F
Type: cell-based
Conditions: 300 µM Ca2+
Protocol: HEK293T cells (ATCC CRL-1573) were maintained in Dulbecco’s modified Eagle’s medium (DMEM; Sigma-Aldrich) supplemented with 10 U ml^−1 penicillin, 0.1 mg ml^−1 streptomycin (Sigma-Aldrich), 2 mM L-glutamine (Sigma-Aldrich), and 10% FBS (Sigma-Aldrich) in a humidified atmosphere containing 5% CO2 at 37 °C. HEK293S GnTI^− cells (ATCC CRL-3022) were maintained in HyClone HyCell TransFx-H medium (GE Healthcare) supplemented with 10 U ml^−1 penicillin, 0.1 mg ml^−1 streptomycin, 4 mM L-glutamine, 0.15% poloxamer 188 (Sigma-Aldrich), and 1% FBS in an atmosphere containing 5% CO2 at 185 rpm at 37 °C. The ac splice variant of mouse TMEM16A (UniProt ID: Q8BHY3), mouse TMEM16B (UniProt ID: Q8CFW1), or mouse TMEM16F (UniProt ID: Q6P9J9) bearing a 3C cleavage site, a Venus YFP, a Myc tag, and a Streptavidin-binding peptide (SBP) downstream of the open reading frame in a modified pcDNA3.1 vector (Invitrogen) were used as described previously[21],[31]. Mutations were introduced using a modified QuikChange method[58] and were verified by sequencing.
HEK293T cells were transfected with 3–4 μg DNA per 6 cm Petri dish using the calcium phosphate co-precipitation method and were used within 24–96 h after transfection. Recordings were performed on inside-out patches excised from HEK293T cells expressing the construct of interest. Patch pipettes were pulled from borosilicate glass capillaries (O.D. 1.5 mm, I.D. 0.86 mm, Sutter Instrument) and were fire-polished with a microforge (Narishige) before use. Pipette resistance was typically 3–8 MΩ when filled with the recording solutions detailed below. Seal resistance was typically 4 GΩ or higher. Voltage-clamp recordings were made using Axopatch 200B, Digidata 1550, and Clampex 10.7 (Molecular Devices). Analog signals were filtered with the in-built 4-pole Bessel filter at 10 kHz and were digitized at 20 kHz. Solution exchange was achieved using a gravity-fed system through a theta glass pipette mounted on an ultra-fast piezo-driven stepper (Siskiyou). […] All recordings were performed at 20 °C.
A symmetrical ionic condition was used throughout. Stock solution with Ca^2+-EGTA contained 150 mM NaCl, 5.99 mM Ca(OH)2, 5 mM EGTA, and 10 mM HEPES at pH 7.40. Stock solution with EGTA contained 150 mM NaCl, 5 mM EGTA, and 10 mM HEPES at pH 7.40. Free Ca^2+ concentrations were adjusted by mixing the stock solutions at the required ratios calculated using the WEBMAXC program (http://web.stanford.edu/~cpatton/webmaxcS.htm). Patch pipettes were filled with the stock solution with Ca^2+-EGTA, which has a free Ca^2+ concentration of 1 mM. 1PBC (ChemBridge) stock was reconstituted in anhydrous DMSO (Sigma-Aldrich) at 100 mM and stored at −20 °C. Working solutions with 1PBC were prepared by serial dilution. Unless otherwise stated, experiments were performed at a saturating Ca^2+ concentration as shown in Supplementary Table 1 and the primary data were corrected for current rundown as described previously[21],[25].
Concentration-response relations, obtained from the ratio of the I-V plots before and after the application of the blocker, were fitted to the Hill equation,1 I/Imax=1/1+IC50/[blocker]^h where I/Imax is the normalized current responses, IC50 defines the concentration at which inhibition is at its half-maximum, and h is the Hill coefficient.

N#Cc1c(C(F)(F)F)cc(O)n2c1nc1ccccc12 [1PBC]
remaining activity at 3 µM (3 µM 1PBC, +80 mV, read-out: I/Imax): 100% | remaining activity at 10 µM (10 µM 1PBC, +80 mV, read-out: I/Imax): 98.7% | remaining activity at 30 µM (30 µM 1PBC, +80 mV, read-out: I/Imax): 101% | remaining activity at 100 µM (100 µM 1PBC, +80 mV, read-out: I/Imax): 100% | Inhibition of the current mediated by the scramblase TMEM16F (within the same concentration range): ineffective
